Measured values published in US20250024846A1, “DEVELOPMENT OF FOOD-GRADE FUNGAL FERMENTATES WITH ANTIMICROBIAL ACTIVITY AND THE USE THEREOF” (Wisconsin Alumni Research Foundation, priority 2021, published 2025).

System: Staphylococcus aureus
Assay: Agar diffusion disc test (zone of inhibition)
Assay type: cell-based
Settings: positive control, 100 μg/mL (FIG. 2b)
Method: Extraction of fermentates. Screening of the antimicrobial activity of NP extracts produced via liquid-liquid extraction with various organic solvents was performed. The tested organic solvents (i.e., ethyl acetate, chloroform, diethyl ether, dichloromethane, tetrahydrofuran, toluene, EMW (mixture of ethyl acetate:methanol:water), CEF (mixture of chloroform:ethyl acetate:formic acid), and BEA (mixture of benzene:ethanol:ammonia hydroxide)) are described in Table 2. 20 mL of NP1 or NP2 was reacted with 20 mL of an organic solvent in 50 mL conical tubes and incubated overnight at 25±2° C. with shaking at 150 rpm. The mixtures were centrifuged at 5000 g and the organic layer was transferred to a new 50 mL conical tube. The extracts were evaporated until dry under gentle airflow. Then, the extracts were reconstituted in 1 mL of methanol and filtered with a sterile 0.45 μm filtration unit. The methanol solution was tested for antimicrobial activity.

CC1(C)S[C@@H]2[C@H](NC(=O)[C@H](N)c3ccccc3)C(=O)N2[C@H]1C(=O)O [ampicillin]
zone of inhibition at 100 µg/mL: ~30 mm
